Results as given in ChEMBL document CHEMBL1201862, “PubChem BioAssay data set” (2004).
The source made the active and inactive calls. Cut-off read from the data, not from the text of the source, for most assays here: actives have a measured IC50 and inactives only a lower limit.

Experiments:
[1] = biological target: T1, Sentrin-specific protease 8 (Homo sapiens, UniProt Q96LD8); type: functional;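 note: luminescence read-out of SENP8 inhibition, dose-response confirmation following an ultra-high-throughput screen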
T1 sequence (Q96LD8 whole entry): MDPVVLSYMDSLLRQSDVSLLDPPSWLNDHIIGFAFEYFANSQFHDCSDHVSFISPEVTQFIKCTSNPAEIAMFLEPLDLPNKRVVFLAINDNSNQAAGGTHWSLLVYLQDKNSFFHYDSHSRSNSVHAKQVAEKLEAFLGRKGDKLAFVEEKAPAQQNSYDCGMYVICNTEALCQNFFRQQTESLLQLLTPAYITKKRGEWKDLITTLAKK

[2] = biological target: T2, Caspase-3 (Homo sapiens, UniProt P42574); type: functional;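 note: Dose-response selectivity test against caspase-3 for candidate inhibitors of sentrin-specific proteases (SENPs)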
T2 sequence (P42574 whole entry): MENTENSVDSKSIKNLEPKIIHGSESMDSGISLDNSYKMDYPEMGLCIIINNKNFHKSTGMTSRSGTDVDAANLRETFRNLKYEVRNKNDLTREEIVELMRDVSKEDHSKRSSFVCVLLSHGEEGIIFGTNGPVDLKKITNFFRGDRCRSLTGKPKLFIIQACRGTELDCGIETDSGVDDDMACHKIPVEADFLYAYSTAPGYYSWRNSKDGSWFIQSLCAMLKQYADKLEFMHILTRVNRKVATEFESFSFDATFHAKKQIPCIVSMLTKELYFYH

[3] = biological target: T3, Apoptotic protease-activating factor 1 (Homo sapiens, UniProt O14727); type: functional
T3 sequence (O14727 whole entry): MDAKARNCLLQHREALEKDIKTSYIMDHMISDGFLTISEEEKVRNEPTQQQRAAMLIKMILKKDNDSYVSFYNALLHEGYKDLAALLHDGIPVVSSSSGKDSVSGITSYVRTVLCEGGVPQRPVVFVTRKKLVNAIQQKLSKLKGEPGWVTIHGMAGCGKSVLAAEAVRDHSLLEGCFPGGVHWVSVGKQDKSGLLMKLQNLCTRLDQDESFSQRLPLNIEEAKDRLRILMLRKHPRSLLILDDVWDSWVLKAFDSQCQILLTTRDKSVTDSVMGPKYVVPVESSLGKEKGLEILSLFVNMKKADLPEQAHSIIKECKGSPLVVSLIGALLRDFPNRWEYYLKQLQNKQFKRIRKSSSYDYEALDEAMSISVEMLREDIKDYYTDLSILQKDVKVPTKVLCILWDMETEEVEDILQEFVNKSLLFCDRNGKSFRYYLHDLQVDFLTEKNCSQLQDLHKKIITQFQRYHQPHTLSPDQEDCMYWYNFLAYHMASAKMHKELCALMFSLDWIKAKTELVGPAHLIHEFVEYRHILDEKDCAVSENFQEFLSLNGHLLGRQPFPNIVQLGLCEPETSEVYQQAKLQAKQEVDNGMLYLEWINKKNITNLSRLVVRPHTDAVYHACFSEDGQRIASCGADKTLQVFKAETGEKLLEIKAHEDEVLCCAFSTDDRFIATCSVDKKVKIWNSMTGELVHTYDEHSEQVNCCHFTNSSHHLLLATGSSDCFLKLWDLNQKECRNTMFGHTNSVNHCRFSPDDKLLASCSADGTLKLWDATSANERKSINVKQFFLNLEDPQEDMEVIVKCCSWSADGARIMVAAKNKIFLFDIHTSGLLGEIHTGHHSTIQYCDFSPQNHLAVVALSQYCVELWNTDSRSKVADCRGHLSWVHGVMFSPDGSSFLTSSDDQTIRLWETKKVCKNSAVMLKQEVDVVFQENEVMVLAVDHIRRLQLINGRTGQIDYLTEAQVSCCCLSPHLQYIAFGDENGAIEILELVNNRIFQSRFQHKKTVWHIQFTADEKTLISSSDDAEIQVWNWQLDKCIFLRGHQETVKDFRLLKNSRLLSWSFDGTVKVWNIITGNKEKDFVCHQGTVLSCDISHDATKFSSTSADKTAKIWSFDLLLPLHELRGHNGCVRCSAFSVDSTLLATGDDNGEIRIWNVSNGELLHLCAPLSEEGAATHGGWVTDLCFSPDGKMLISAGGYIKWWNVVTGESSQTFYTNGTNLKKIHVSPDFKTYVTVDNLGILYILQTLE

[4] = biological target: T4, Streptokinase A (Streptococcus pyogenes serotype M1, UniProt P10520); test: S. pyogenes streptokinase expression inhibitors, potency, dose response, plasminogen activation absorbance, OD405 (AID 1914); type: functional, Streptococcus pyogenes M1 GAS;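 note: secreted streptokinase activity via plasminogen activation per viability signal from cell pellet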
T4 sequence (P10520 whole entry): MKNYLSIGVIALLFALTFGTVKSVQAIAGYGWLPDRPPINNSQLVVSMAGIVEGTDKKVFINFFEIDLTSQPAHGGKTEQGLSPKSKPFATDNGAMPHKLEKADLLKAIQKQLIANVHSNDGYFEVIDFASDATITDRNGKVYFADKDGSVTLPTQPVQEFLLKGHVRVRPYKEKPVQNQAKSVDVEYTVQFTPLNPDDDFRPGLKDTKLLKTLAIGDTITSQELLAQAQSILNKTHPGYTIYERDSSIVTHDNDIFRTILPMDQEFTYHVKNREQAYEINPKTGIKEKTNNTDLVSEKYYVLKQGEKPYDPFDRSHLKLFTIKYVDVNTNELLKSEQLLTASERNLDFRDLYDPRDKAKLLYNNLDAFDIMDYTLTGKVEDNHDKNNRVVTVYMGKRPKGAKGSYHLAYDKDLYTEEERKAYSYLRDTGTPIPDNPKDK

| SMILES | IC50 [1] | IC50 [2] | IC50 [3] | EC50 [4] |
| --- | --- | --- | --- | --- |
| CC1OC(Nc2cccc3ccccc23)C(O)C(O)C1O (stereo not drawn) | 6.06 µM (active) | 9.4 µM (active) | 14.8 µM (active) | – |
| O=C(Nc1ccccc1)c1nnsc1[S+]([O-])c1ccc(Cl)cc1 (stereo not drawn) | – | – | – | 1.06 µM (active) |
| O=C1C=C(Nc2ccccc2)c2ccccc2C1=O | 9.45 µM (active) | 18.6 µM (active) | 2.23 µM (active) | > 150 µM (not active) |
